# Measurements from patent US9505709B2, “Compositions and methods relating to ionic salts of peptides” (Thetis Pharmaceuticals LLC, priority 2014, dated 2016).
# Assays:
# [1] = Intravenous injection pharmacokinetics, plasma free EPA or free DHA; assay type: in vivo, Sprague-Dawley rats; details: rat
# Experimental: Experiments via Intravenous Injection: TP-212 and TP-312 were administered by intravenous injection (20 mg/kg) to Sprague-Dawley rats (n=6/group—3 male and 3 female), and plasma was obtained from serial blood samples taken from each animal at scheduled times ([…]). Blood samples were centrifuged to separate red blood cells and the resulting plasma samples were analyzed for free EPA or free DHA. Free EPA or free DHA was extracted from rat plasma with hexane at acidic condition without hydrolysis. Detection was by MS-MS monitoring of negative ion for EPA or DHA. Calculated pharmacokinetic values are mean values from 6 rats for each study drug.
# (§1) For all figures and tables, the data are adjusted as follows for comparative purposes. First, the actual plasma levels are baseline adjusted. Thus, for each study arm, the pre-dose level (time=0) is subtracted from the actual plasma levels at each time point, with negative values adjusted to zero. Second, these baseline adjusted values are further adjusted to be molar dose equivalent on a comparative basis among the study arms with respect to EPA or DHA payload (i.e., as if equal amounts of free fatty acid EPA or DHA are administered in each study arm).
# Balb/C mice = assay: Ocular irritation after topical dosing to the cornea (hyperemia, squinting, discharge, lid swelling); assay type: in vivo; details: for Hyperemia: 3 μL drop in each eye four times daily for 3 days
# Experimental: In an embodiment where the ophthalmic formulation is an aqueous formulation, it has been determined in mice that certain formulations can be administered to the surface of the eye without producing irritation that would make them unsuitable for such application. Irritation parameters of TP-211-1, TP-212-1, TP-311-1 and TP-312-1 related to hyperemia, squinting, and discharge were determined in Balb/C mice. Mice were dosed topically to the cornea using a calibrated micropipette, with a 3 μL drop of treatment in each eye four times daily for 3 consecutive days at various concentrations.
# TP-211-1 is Lysyl-lysine EPA. TP-212-1 is Lysyl-lysine bis-EPA. TP-311-1 is Lysyl-lysine DHA. TP-312-1 is Lysyl-lysine bis-DHA. The study drugs were prepared using phosphate buffered saline (PBS) to reach target concentrations ranging from 0.1% to 1.0%.
# The animals were monitored for scratching at the eye or any other abnormal behavior post-dose. Ocular exams were conducted on Days 1 and 3 with use of a Micron III camera system to take high resolution videos of the right eye of each animal Clinical signs including but not limited to hyperemia, discharge, lid swelling, and squinting were evaluated by trained personnel who was masked as to group assignment. Each clinical sign was graded on a scale of 0-4, with the exception of lid swelling which was graded on a scale of 0-2. Scores were averaged and are expressed as the mean±SEM for each group. Statistical significance was assessed between the treatment arms and the vehicle group. Any significance is noted by asterisks (*=p<0.05, **=p<0.01, ***=p<0.001).
# [2] = Stability analysis by 1H NMR of samples exposed to air and light; details: ambient temperature
# Experimental: Stability analysis was performed using 1H NMR (400 MHz) with acetic acid-d4 at various time point (typically days 1, 14, 30 and 60) using samples exposed to air and light at ambient temperature (clear vials with no caps).
# [3] = Oral pharmacokinetics (oral gavage), plasma free EPA or free DHA; assay type: in vivo, Sprague-Dawley rats; details: rat
# Experimental: Experiments via Oral Gavage: Oral pharmacokinetic parameters of TP-212 (Lysyl-Lysine Bis-EPA), TP-312 (Lysyl-Lysine Bis-DHA), EPA-EE, EPA FFA and DHA FFA were determined in Sprague-Dawley rats. EPA-EE is 97% pure ethyl ester form of eicosapentaenoic acid. It is the principal polyunsaturated fatty acid in Vascepa, an Omega-3 compound approved in the U.S. for the treatment of severe hypertriglyceridemia. EPA FFA is 97% pure free fatty acid form of eicosapentaenoic acid and DHA FFA is 98% pure free fatty acid DHA. EPA FFA and DHA FFA are the two principal poly-unsaturated fatty acids in Epanova, an Omega-3 compound approved in the U.S. for the treatment of severe hypertriglyceridemia. The subject drugs were administered by oral gavage as an aqueous solution in de-ionized water to 6 Sprague-Dawley rats per group (3 males and 3 females). Rats were dosed at 40 mg/kg. Blood samples were obtained from each rat by jugular vein catheter. Samples were collected at pre-dose and at 0.25, 0.5, 1, 2, 4, 8, 12 and 18 hours post dose. Blood samples were centrifuged to separate red blood cells and the resulting plasma samples were analyzed for free EPA or free DHA. Free EPA or […] extracted from rat plasma with hexane at acidic condition without hydrolysis. Detection was by MS-MS monitoring of negative ion for EPA or DHA. Calculated pharmacokinetic values are mean values from 6 rats for each study drug.
# as §1
# [4] = intravenous injection 20 mg/kg, molar dose equivalent, baseline adjusted
# [5] = oral gavage 40 mg/kg, molar dose equivalent, baseline adjusted
smiles,measurement,setting,value
"CC/C=C\C/C=C\C/C=C\C/C=C\C/C=C\C/C=C\CCC(=O)O.CC/C=C\C/C=C\C/C=C\C/C=C\C/C=C\C/C=C\CCC(=O)O.NCCCC[C@H](NC(=O)[C@@H](N)CCCCN)C(=O)O [Compound 4, (L,L) Lysyl-lysine bis DHA]",Tmax (free DHA),[1]; intravenous injection 20 mg/kg,1 min
same,Plasma level of free DHA,"[1]; intravenous injection 20 mg/kg, 1 min, molar dose equivalent, baseline adjusted",66.4 µg/mL
same,Plasma level of free DHA,"[1]; intravenous injection 20 mg/kg, 5 min, molar dose equivalent, baseline adjusted",15.1 µg/mL
same,Plasma level of free DHA,"[1]; intravenous injection 20 mg/kg, 10 min, molar dose equivalent, baseline adjusted",16.6 µg/mL
same,Plasma level of free DHA,"[1]; intravenous injection 20 mg/kg, 15 min, molar dose equivalent, baseline adjusted",17.5 µg/mL
same,Plasma level of free DHA,"[1]; intravenous injection 20 mg/kg, 30 min, molar dose equivalent, baseline adjusted",16.4 µg/mL
same,Plasma level of free DHA,"[1]; intravenous injection 20 mg/kg, 60 min, molar dose equivalent, baseline adjusted",12.9 µg/mL
same,Plasma level of free DHA,"[1]; intravenous injection 20 mg/kg, 120 min, molar dose equivalent, baseline adjusted",8.5 µg/mL
same,Plasma level of free DHA,"[1]; intravenous injection 20 mg/kg, 240 min, molar dose equivalent, baseline adjusted",7.8 µg/mL
same,Plasma level of free DHA,"[1]; intravenous injection 20 mg/kg, first line (time printed as dash, pre-dose), molar dose equivalent, baseline adjusted",0.0 µg/mL
same,AUC 0-1 hrs (free DHA),[1]; [4],16.3 µg·h/mL
same,AUC 0-4 hrs (free DHA),[1]; [4],43.3 µg·h/mL
same,Cmax (free DHA),[1]; [4],66.4 µg/mL
same,"AUC over 1 hour (free DHA), times greater than DHApo",[1]; intravenous vs oral gavage,~14.7 times
same,"AUC over 1 hour (free DHA), times greater than TP-312po",[1]; intravenous vs oral gavage,approximately 4.9 times
same,"AUC over 4 hours (free DHA), times greater than DHApo",[1]; intravenous vs oral gavage,~5.0 times
same,"AUC over 4 hours (free DHA), times greater than TP-312po",[1]; intravenous vs oral gavage,approximately 1.6 times
same,"Cmax (free DHA), times greater than DHApo",[1]; intravenous vs oral gavage,~19.3 times
same,"Cmax (free DHA), times greater than TP-312po",[1]; intravenous vs oral gavage,approximately 6.4 times
same,Hyperemia,Balb/C mice; 0.1% concentration in PBS,did not cause any significant increase in hyperemia after the first dose
same,Hyperemia,Balb/C mice; 0.5% concentration in PBS,some initial hyperemia after the first dose
same,Hyperemia,Balb/C mice; 1.0% concentration in PBS,some initial hyperemia after the first dose
same,Squinting,"Balb/C mice; all concentrations tested, topical to cornea",none of the concentrations caused squinting throughout the study
same,Hyperemia at last dose / final evaluation,"Balb/C mice; concentrations that showed an initial increase or all tested, last dose / final evaluation (Day 3)",remained at baseline levels of hyperemia by the last dose of the day
same,Concentration at which not irritating / well tolerated,Balb/C mice; topical to cornea four times daily for 3 days,less than 1.0%
same,Stability by NMR (amount of sample remaining relative to original sample),[2]; Day 3,1 (1 = >95%)
same,Stability by NMR (amount of sample remaining relative to original sample),[2]; Day 14,1 (1 = >95%)
same,Stability by NMR (amount of sample remaining relative to original sample),[2]; Day 30,1 (1 = >95%)
same,Stability by NMR (amount of sample remaining relative to original sample),[2]; Day 60,1 (1 = >95%)
same,Tmax (free DHA),[3]; oral gavage 40 mg/kg,2 h
same,Plasma level of free DHA,"[3]; oral gavage 40 mg/kg, 0 h (pre-dose), molar dose equivalent, baseline adjusted",0.0 µg/mL
same,Plasma level of free DHA,"[3]; oral gavage 40 mg/kg, 0.25 h (15 min), molar dose equivalent, baseline adjusted",0.0 µg/mL
same,Plasma level of free DHA,"[3]; oral gavage 40 mg/kg, 0.5 h (30 min), molar dose equivalent, baseline adjusted",4.6 µg/mL
same,Plasma level of free DHA,"[3]; oral gavage 40 mg/kg, 1 h (60 min), molar dose equivalent, baseline adjusted",6.3 µg/mL
same,Plasma level of free DHA,"[3]; oral gavage 40 mg/kg, 2 h (120 min), molar dose equivalent, baseline adjusted",10.4 µg/mL
same,Plasma level of free DHA,"[3]; oral gavage 40 mg/kg, 4 h (240 min), molar dose equivalent, baseline adjusted",5.6 µg/mL
same,Plasma level of free DHA,"[3]; oral gavage 40 mg/kg, 8 h, molar dose equivalent, baseline adjusted",1.4 µg/mL
same,Plasma level of free DHA,"[3]; oral gavage 40 mg/kg, 12 h, molar dose equivalent, baseline adjusted",0.0 µg/mL
same,Plasma level of free DHA,"[3]; oral gavage 40 mg/kg, 18 h, molar dose equivalent, baseline adjusted",0.0 µg/mL
same,AUC 0-1 hrs (free DHA),[3]; [5],3.3 µg·h/mL
same,AUC 0-4 hrs (free DHA),[3]; [5],27.6 µg·h/mL
same,AUC 0-18 hrs (free DHA),[3]; [5],44.4 µg·h/mL
same,Cmax (free DHA),[3]; [5],10.4 µg/mL
same,"AUC over 18 hours (free DHA), times greater than DHA-FFA",[3]; oral gavage,approximately 1.2 times
same,"Cmax (free DHA), times greater than DHA-FFA",[3]; oral gavage,approximately 3.0 times
